# pIC50: −log10 of the molar value.
# Molecular target: T1, TRPC6 channel (Homo sapiens, UniProt Q9Y210)
# T1 construct: expressed in transfected cells; host or cells: HEK293
# T1 sequence (Q9Y210 1-931): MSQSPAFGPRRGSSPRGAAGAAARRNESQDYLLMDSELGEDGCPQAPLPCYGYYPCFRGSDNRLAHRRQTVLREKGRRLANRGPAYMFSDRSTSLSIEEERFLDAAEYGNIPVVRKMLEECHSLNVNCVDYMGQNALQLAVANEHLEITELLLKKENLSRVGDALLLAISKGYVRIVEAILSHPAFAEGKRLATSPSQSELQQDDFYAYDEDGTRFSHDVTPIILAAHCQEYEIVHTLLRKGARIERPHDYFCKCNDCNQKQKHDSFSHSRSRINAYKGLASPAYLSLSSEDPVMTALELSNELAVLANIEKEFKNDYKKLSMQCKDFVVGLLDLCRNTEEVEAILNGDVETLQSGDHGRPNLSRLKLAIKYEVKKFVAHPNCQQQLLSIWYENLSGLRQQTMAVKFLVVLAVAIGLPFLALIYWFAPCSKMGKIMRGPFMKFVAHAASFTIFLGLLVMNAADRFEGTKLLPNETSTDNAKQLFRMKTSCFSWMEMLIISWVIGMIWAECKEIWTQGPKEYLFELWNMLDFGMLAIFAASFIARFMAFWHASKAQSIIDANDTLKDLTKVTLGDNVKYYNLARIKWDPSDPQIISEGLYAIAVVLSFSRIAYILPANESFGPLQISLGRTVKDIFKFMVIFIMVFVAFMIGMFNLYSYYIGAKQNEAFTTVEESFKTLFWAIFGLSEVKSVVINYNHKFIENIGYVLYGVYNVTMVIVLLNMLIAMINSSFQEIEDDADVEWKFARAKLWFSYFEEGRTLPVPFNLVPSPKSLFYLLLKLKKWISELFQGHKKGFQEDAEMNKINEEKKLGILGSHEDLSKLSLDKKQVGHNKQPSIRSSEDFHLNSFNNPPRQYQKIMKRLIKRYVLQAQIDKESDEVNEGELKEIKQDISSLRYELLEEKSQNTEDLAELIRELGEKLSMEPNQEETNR
# Experiment: Calcium assay using HEK293 cells transiently expressing TRPC6 channel, carbachol activation (Fura-2)
# Assay type: cell-based
# Description: A TRPC6 gene was introduced into HEK293 cells (cells derived from human fetal kidney) by lipofection, and the TRPC6 channel was expressed on the cell membrane. Specifically, the plasmid DNA of TRPC6 (pCI-neo; Promega Corporation) was introduced into HEK293 cells using a lipofection reagent, and then cultured at 37° C. for 24 to 48 hours to express the TRPC6 channel on the cell membrane. In the same manner, HEK293 cells into which the TRPC3 gene was introduced were cultured, and the TRPC3 channel was expressed on the cell membrane.
# The cultured cells were peeled off with trypsin and seeded on a cover glass again, followed by culturing the cells at 37° C. for 3 hours again. A Fura-2 AM calcium indicator was added to the medium, and the cells were cultured at 37° C. for 30 minutes to allow the cells to incorporate the indicator. For the extracellular solution, a Ca^2+-containing solution and a Ca^2+-free solution were prepared. • Ca^2+-containing solution: 2 mM CaCl2, 132 mM NaCl, 4 mM KCl, 1 mM MgCl2, 5 mM glucose, 5 mM HEPES (pH 7.4) • Ca^2+-free solution: 132 mM NaCl, 4 mM KCl, 1 mM MgCl2, 5 mM glucose, 5 mM HEPES (pH 7.4)
# After the cells were added to the Ca^2+-containing solution, the following operation was performed while the fluorescence intensity (510 nm) of Fura-2 was measured at room temperature with an ARGUS CA-20 (Hamamatsu Photonics K.K.) over time. • 0 minutes: TRPC3-expressing cells or TRPC6-expressing cells are placed in a measurement chamber that contains the Ca^2+-containing solution. • After 30 seconds: The Ca^2+-containing solution is replaced with the Ca^2+-free solution. • After 1 minute: A predetermined amount of a test compound is added to the Ca^2+-free solution. • After 3 minutes: Carbachol (100 μM) is added to the Ca^2+-free solution. • After 7 minutes: The Ca^2+-free solution is replaced with the Ca^2+-containing solution that contains a test compound and carbachol […]. • After 15 minutes: Measurement is ended.
# Compound 011 was used as the test compound, and the amount of the test compound added was 0.01, 0.1, 0.5, 1.0, 5.0, 10, or 50 μM. For the control, 0.1% DMSO was used in place of the test compound. Carbachol (cch) is a TRPC-channel-activating reagent. Applying carbachol to cells opens the TRPC channel and allows a large amount of Ca^2+ in the extracellular solution to flow into the cells. Fura-2 AM has high cell membrane permeability due to the presence of an AM group (acetoxymethyl group), and is thus easily incorporated into the cells. The AM group is hydrolyzed in the cells to become Fura-2. Thus, Fura-2 can form a chelate with Ca^2+ and is also unlikely to leak out of the cells due to the loss of the AM group.
# In the same manner as in Test Example 1, the maximum calcium ion concentration was measured after 7 minutes from the start of measurement (i.e., after replacement with the Ca^2+-containing solution) by using TRPC6-expressing cells prepared in the same manner as in Test Example 1, except that 10 μM of Pyr 4 and 10 μM of compound 011, 031, 041, or 191 (test compound) were used. The average value of calcium ion concentrations up to 30 seconds after the start of measurement (the initial value of calcium ion concentration) was subtracted from the maximum calcium ion concentration, and the calculated value was determined to be the amount of increase in calcium ions. FIG. 3 illustrates the results.
# The calcium ion concentration was measured in the same manner as in Test Example 2, except that 10 μM of compound 011, 361, 362(E), 362(Z), 371, 372(Z), 381, or 401 (test compound) was used, and Pyr 4 was not used, thereby determining the amount of increase in calcium ions. Table 2 illustrates the amount of increase in calcium ions for each test compound relative to the amount of increase in calcium ions in the control (DMSO) taken as 100%.
structure (smiles),measurement,setting,value
"O=C(O)c1cnc(N2CCN(c3noc4cccc(C(F)(F)F)c34)CC2)c(Cl)c1 [Compound 011, 5-chloro-6-(4-(4-(trifluoromethyl)benzo[d]isoxazol-3-yl)piperazin-1-yl) nicotinic acid]","suppression of TRPC6 channel activation (decrease in calcium ion influx, FIG. 3)","10 μM test compound, carbachol",activation of the TRPC6 channel was suppressed
same,amount of increase in calcium ions relative to control (DMSO) taken as 100%,"10 μM test compound, carbachol, TRPC6-expressing cells",21%
same,Ca2+ concentration in the cells reached after addition of carbachol,"TRPC6, FIG. 1, from about 100 nM, control (DMSO) about 280 nM",about 140 nM
same,pIC50,"TRPC6-expressing HEK293 cells, carbachol 100 μM, from concentration-response curves, read-out: IC50 for inhibition of the TRPC6 channel",5.34
